Legend:
[1] = molecular target: human 5-HT2A (h5-HT2A) receptor (Homo sapiens (Human), UniProt P28223); test: FLIPR assay, human 5-HT2A receptor under agonist mode; format: cell-based
Experimental: • I. Assessment of the activated effect of exemplary compounds of Formula I targeting on human 5-HT2A (h5-HT2A) receptor under agonist mode: Compound Preparation and Assay Controls I.a. Reagent and Materials:
1. Culture the cells in cell culture medium (DMEM containing 10% FBS 1× penicillin-streptomycin 300 μg/ml G418 and 100 μg/ml hygromycin B) at 37° C., 5% (v/v) CO2.
2. One day before the assays, detach the cell using TrypLE™ Express and count cells using cell counter.
3. Seed 20000 cells/well in 30 μl/well culture medium to a 384-well cell plate and incubate the cells overnight at 37° C., 5% (v/v) CO2.
4. On the assay day, prepare 2× dye solution following the manual of the FLIPR® Calcium 6 Assay Kit: i. Dilute the dye with assay buffer (20 mM HEPES in 1×HBSS, PH7.4); ii. Add probenecid to the final concentration of 5 mM; iii. Vortex vigorously for 1-2 minutes.
5. Medium from cell plate by flicking the cell plate on towel papers.
6. Add 10 μl of assay buffer and 10 μl of 2× dye solution to each well of the cell plate.
7. Put the cell plate on plate shaker, agitate the plate at 600 rpm for 2 minutes. Incubate the plate at 37° C. for 2 hours followed by additional 15-minute incubation at 25° C.
8. Prepare 3× compound in assay buffer: a. Dilute reference compounds to required concentration with DMSO. Add the compounds to a 384-well compound plate; b. Perform serial dilutions; c. Add 10 mM test compounds to the compound plate, perform 3-fold serial dilutions. d. […] Add 20 μl/well assay buffer to the compound plate; f. Mix the plate on plate shaker for 2 mins;
i. The normalized fluorescence reading (RFU) is calculated as shown follow, while Fmax and Fmin stand for maximum and minimum of calcium signal during defined time window: RFU=Fmax−Fmin
ii. Calculate the percentage activation by using following equation: […]
iii. Calculate EC50 by fitting % activation against log of compound concentrations with Hill equation using XLfit.

[2] = Liver microsomes stability, human; conditions: for half-life at 2 μM / microsomal CLint at 2 μM: microsomes; for Remaining Percentage (%) after 60 min Human: with NADPH, 2 μM, 0.5 mg/mL microsomes
Experimental: (§1) The objective of this study was to estimate in vitro metabolic stability of I-12 in pooled human, male rat and male mouse liver microsomes. The concentrations of parent compounds in reaction systems were evaluated by LC-MS/MS for estimating the stability in pooled human, male rat and male mouse liver microsomes. The in vitro intrinsic clearances of test compounds were determined as well.
(§2) A master solution in the “Incubation Plate” containing phosphate buffer, ultra-pure H2O, MgCl2 solution and liver microsomes was made according to Table-3. The mixture was pre-warmed at 37° C. water bath for 5 minutes.
(§3) 40 μL of 10 mM NADPH solution was added to each well. The final concentration of NADPH was 1 mM. The negative control samples were prepared by replacing NADPH with 40 μL of ultra-pure H2O. Samples were prepared in duplicate. Negative controls were prepared in singlet.
(§4) The reaction was started with the addition of 4 μL of 200 μM exemplary test compounds of the application or control compounds to each master solution to get the final concentration of 2 μM. This study was performed in duplicate.
(§5) Aliquots of 50 μL were taken from the reaction solution at 0, 15, 30, 45 and 60 minutes. The reaction solutions were stopped by the addition of 4 volumes of cold methanol with IS (100 nM alprazolam, 200 nM imipramine, 200 nM labetalol and 2 μM ketoprofen). Samples were centrifuged at 3,220 g for 40 minutes. Aliquot of 90 μL of the supernatant was mixed with 90 μL of ultra-pure H2O and then was used for LC-MS/MS analysis.
(§6) LC/MS analysis was performed for all samples from this study using a Shimadzu liquid chromatograph separation system equipped with degasser DGU-20A5R; solvent delivery unit LC-30AD; system controller SIL-30AC; column oven CTO-30A; CTC Analytics HTC PAL System. Mass spectrometric analysis was performed using an Triple Quad™ 5500 instrument.
(§7) All calculations were carried out using Microsoft Excel. Peak area ratios of test compound to internal standard (listed in the below table) were determined from extracted ion chromatograms.
(§8) All calculations were carried out using Microsoft Excel. Peak areas were determined from extracted ion chromatograms. The slope value, k, was determined by linear regression of the natural logarithm of the remaining percentage of the parent drug vs. incubation time curve.
(§9) Conversion of the in vitro t1/2 (min) into the in vitro intrinsic clearance (in vitro CLint, in μL/min/mg proteins) was done using the following equation (mean of duplicate determinations): […]

[3] = Liver microsomes stability, rat; conditions: for half-life at 2 μM / microsomal CLint at 2 μM: male, rat, microsomes; for Remaining Percentage (%) after 60 min Rat: with NADPH, 2 μM, 0.5 mg/mL microsomes
Experimental: as §1, §2, §3, §4, §5, §6, §7, §8, §9

[4] = Liver microsomes stability, mouse; conditions: for half-life at 2 μM / microsomal CLint at 2 μM: male, mouse, microsomes; for Remaining Percentage (%) after 60 min Mouse: with NADPH, 2 μM, 0.5 mg/mL microsomes
Experimental: as §1, §2, §3, §4, §5, §6, §7, §8, §9

[5] = In vivo pharmacokinetics of I-28 and its metabolite I-45 in mice (i.v. and p.o.); design: species or system Male C57 BL/6 mice
Experimental: Male C57 BL/6 mice (25-30 g) from Charles River Labs were acclimatized for a minimum of 5 days prior to dosing. Body weights were recorded on the day of dosing.
Animals dosed p.o. were deprived of food overnight and fed ˜2 h following dosing.
Formulations were administered intravenously (i.v.) via the tail vein or orally (p.o.) by gavage with disposable feeding needles.
Serial blood samples were collected via tail snip. Terminal blood samples were collected under isoflurane anesthesia by cardiac puncture.
All blood samples were transferred into K2EDTA tubes on wet ice and centrifuged within 5 min (3200×g for 5 min at 4° C.) to obtain plasma. Plasma were stored at −80° C. until analysis.
AB Sciex QTRAP 4000 or 6500 MS/MS system equipped with an LC system with a binary pump, a solvent degasser, a thermostated column compartment and a multiplate autosampler. i. Analysis software: Phoenix® WinNonlin® 8.2 (Pharsight, Certara, Mountainview, Calif.) ii. Analysis methods: non-compartmental analysis, linear up/log down trapezoidal rule iii. PK parameters: C0, t1/2, AUC0-tlast, AUC0-∞, CL, VSS, MRT, tmax(po), Cmax(po), F, as appropriate C0 concentration extrapolated to time zero following an i.v. dose tmax time at which maximum concentration is observed Cmax maximum observed concentration Apparent t1/2 apparent terminal half-life area under the concentration vs time curve from time 0 to the time of the last AUC0-tlast measurable concentration AUC0-inf area under the concentration vs time curve from time 0 to infinity CL systemic clearance MRT0-inf mean residence time from time zero to infinity VSS steady-state volume of distribution F bioavailability=(Dose^iv*AUC^po)/(Dose^po*AUC^iv)*100

[6] = i.v., Metabolite (I-45) alone 1 mg/kg, mouse plasma
[7] = p.o., Metabolite (I-45) alone 10 mg/kg, mouse plasma
[8] = male, C57 BL/6, iv, i.v., I-28 2.2 mg/kg, I-28 in mouse plasma, n = 2

For [2H]C([2H])([2H])N(C([2H])([2H])[2H])C([2H])([2H])C([2H])([2H])c1c[nH]c2cccc(O)c12 [Compound I-45, 3-(2-(bis(methyl-d3)amino)ethyl-1,1,2,2-d4)-1H-indol-4-ol], the “agonist effect on h5-HT2A receptor (in words)” value ([1]; agonist mode, FLIPR) was “active agonist”, the half-life at 2 μM ([2]; human) was 5.01 h and the microsomal CLint at 2 μM ([2]; human) was 4.61 µL/min/mg. For the same compound, the “Remaining Percentage (%) after 60 min Human” value [2] was 87.08%, the half-life at 2 μM [3] was 1.76 h and the microsomal CLint at 2 μM [3] was 13.1 µL/min/mg. For the same compound, the “Remaining Percentage (%) after 60 min Rat” value [3] was 67.47%, the half-life at 2 μM [4] was 4.09 h and the microsomal CLint at 2 μM [4] was 5.65 µL/min/mg. The “Remaining Percentage (%) after 60 min Mouse” value [4] was 84.40%, the “AUC0-inf/Dose” value [5, 6] was 181 ± 30.8 kg·ng·h/mL/mg and the “Apparent t1/2” value [5, 6] was 5.32 ± 2.99 h. The C0 ([5]; male, C57 BL/6, mouse, plasma, iv, 1 mg/kg) was 566 ± 85 ng/mL, the “AUC0-inf/Dose” value [5, 7] was 79.5 ± 12.1 kg·ng·h/mL/mg and the “Apparent t1/2” value [5, 7] was 4.52 ± 0.481 h. For the same compound, the “Cmax/Dose” value [5, 7] was 70.4 ± 12.8 kg·ng/mL/mg.

For [2H]C([2H])([2H])N(C([2H])([2H])[2H])C([2H])([2H])C([2H])([2H])c1c[nH]c2cccc(OC(=O)CCCCCCC/C=C\C/C=C\CCCCC)c12 [Compound I-28, 3-(2-(bis(methyl-d3)amino)ethyl-1,1,2,2-d4)-1H-indol-4-yl (9Z,12Z)-octadeca-9,12-dienoate], the EC50 [1] was 965 nM, the half-life at 2 μM ([2]; human) was 2.23 h and the microsomal CLint at 2 μM ([2]; human) was 10.4 µL/min/mg. For the same compound, the “metabolic stability in liver microsomes (in words)” value ([2]; human, rat and mouse liver microsomes, 60 minute) was “rapidly metabolized”, the “Remaining Percentage (%) after 60 min Human” value [2] was 73.27% and the half-life at 2 μM [3] was 0.659 h. The microsomal CLint at 2 μM [3] was 35.1 µL/min/mg, the “Remaining Percentage (%) after 60 min Rat” value [3] was 34.92% and the half-life at 2 μM [4] was 0.276 h. The microsomal CLint at 2 μM [4] was 83.7 µL/min/mg, the “Remaining Percentage (%) after 60 min Mouse” value [4] was 8.12% and the “AUC0-inf/Dose (h*kg*ng/mL/mg)” value ([5]; i.v., I-28 2.2 mg/kg, I-28 in mouse plasma, n = 2) was 62.1 (n = 2) h*kg*ng/mL/mg. The C0 ([5]; male, C57 BL/6, iv, i.v., I-28 2.2 mg/kg (equimolar to 1 mg/kg metabolite), I-28 in mouse plasma) was 448 ± 411 ng/mL, the AUC(0-inf) [5, 8] was 137 ng·h/mL and the clearance [5, 8] was 385 mL/min/kg. For the same compound, the half-life ([5]; male, C57 BL/6, iv, i.v., I-28 2.2 mg/kg, I-28 in mouse plasma, n = 2, read-out: Apparent t1/2 (converted)) was 4.92 h, the MRT inf ([5]; male, C57 BL/6, iv, i.v., I-28 2.2 mg/kg, I-28 in mouse plasma, n = 2, read-out: MRT0-inf) was 0.977 h and the Vd ([5]; male, C57 BL/6, iv, i.v., I-28 2.2 mg/kg, I-28 in mouse plasma, n = 2, read-out: VSS) was 17 L/kg. It also gave an AUC(0-t) ([5]; male, C57 BL/6, iv, i.v., I-28 2.2 mg/kg, I-28 in mouse plasma, read-out: AUC0-tlast) of 110 ± 85.9 ng·h/mL, a Tmax ([5]; male, C57 BL/6, po, p.o., I-28 22 mg/kg (equimolar to 10 mg/kg metabolite), I-28 in mouse plasma) of 2.17 ± 3.32 h and a Cmax ([5]; male, C57 BL/6, po, p.o., I-28 22 mg/kg, I-28 in mouse plasma) of 1.06 ± 0.447 ng/mL. For the same compound, the “Cmax/Dose” value ([5]; p.o., I-28 22 mg/kg, I-28 in mouse plasma) was 0.0482 ± 0.0203 kg·ng/mL/mg.

— patent publication US11591353B2 (Mindset Pharma Inc., priority 2020, dated 2023)
